Experimental data as given in PubChem BioAssay AID248 (DTP/NCI, 2004).
“And” between values parts separate entries of the source, which are not always exact repeats. Equal values may be shown once. Inconclusive results and toxic doses are left out. Rule as the data show it: active = T/C of 150% or more; inactive = T/C below 125%.

Tested on: L1210 leukemia ip in BDF1 mice, survival T/C
Assay: NCI In Vivo Anticancer Drug Screen. Data for tumor model L1210 Leukemia (intraperitoneal) in B6D2F1 (BDF1) mice
Details: endpoint: mean survival time, higher = longer survival
How it was run: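 Tumor was transplanted into mice, which were then dosed with test compound or vehicle alone. Survival was recorded for each group, and the treated figure was expressed relative to the control figure.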

[1] = dose: 100.0 mg/kg/injection, schedule: Q04DX002 (ip), vehicle: Klucel (hydroxypropylcellulose) (HPC)
[2] = dose: 200.0 mg/kg/injection, schedule: Q04DX002 (ip), vehicle: Klucel (hydroxypropylcellulose) (HPC)
[3] = dose: 400.0 mg/kg/injection, schedule: Q04DX002 (ip), vehicle: Klucel (hydroxypropylcellulose) (HPC)
[4] = dose: 100.0 mg/kg/injection, schedule: Q01DX001 (ip), vehicle: Klucel (hydroxypropylcellulose) (HPC)
[5] = dose: 100.0 mg/kg/injection, schedule: Q01DX001 (ip), vehicle: saline
[6] = dose: 200.0 mg/kg/injection, schedule: Q01DX001 (ip), vehicle: saline
[7] = dose: 400.0 mg/kg/injection, schedule: Q01DX001 (ip), vehicle: saline
[8] = dose: 100.0 mg/kg/injection, schedule: Q01DX009 (ip), vehicle: Klucel (hydroxypropylcellulose) (HPC)
[9] = dose: 200.0 mg/kg/injection, schedule: Q01DX009 (ip), vehicle: Klucel (hydroxypropylcellulose) (HPC)
[10] = dose: 50.0 mg/kg/injection, schedule: Q01DX009 (ip), vehicle: Klucel (hydroxypropylcellulose) (HPC)
[11] = dose: 100.0 mg/kg/injection, schedule: Q04DX002 (ip), vehicle: saline
[12] = dose: 100.0 mg/kg/injection, schedule: Q04DX003 (ip), vehicle: saline with Tween-80
[13] = dose: 100.0 mg/kg/injection, schedule: Q01DX009 (ip), vehicle: saline with Tween-80
[14] = dose: 200.0 mg/kg/injection, schedule: Q04DX003 (ip), vehicle: saline with Tween-80
[15] = dose: 400.0 mg/kg/injection, schedule: Q04DX003 (ip), vehicle: saline with Tween-80

Measured: T/C

Cc1cccc(C2=N/C(=C\c3cccc([N+](=O)[O-])c3)C(=O)O2)c1
inactive: [1] 92 % of control | [2] 92 % of control | [3] 100 % of control

C1CCC2[N-]CC3CCCCC3[N-]CC3CCCCC3[N-]CC3CCCCC3[N-]CC2C1.[Cu] (centres undefined)
inactive: dose: 20.0 mg/kg/injection, schedule: Q01DX001 (ip), vehicle: Klucel (hydroxypropylcellulose) (HPC) 110 % of control | dose: 40.0 mg/kg/injection, schedule: Q01DX001 (ip), vehicle: Klucel (hydroxypropylcellulose) (HPC) 117 % of control | [4] 116 % of control

O=[N+]([O-])c1ccccc1SSSc1ccccc1[N+](=O)[O-]
inactive: [5] 89 % of control | [6] 93 % of control | [7] 101 % of control

CCCCCCCCCCCC(O)CCCC (centres undefined)
inactive: [8] 90 % of control | dose: 100.0 mg/kg/injection, schedule: Q04DX003 (ip), vehicle: Klucel (hydroxypropylcellulose) (HPC) 96 % of control | [9] 95 % of control | dose: 200.0 mg/kg/injection, schedule: Q04DX003 (ip), vehicle: Klucel (hydroxypropylcellulose) (HPC) 91 % of control | dose: 400.0 mg/kg/injection, schedule: Q04DX003 (ip), vehicle: Klucel (hydroxypropylcellulose) (HPC) 90 % of control

CN1CCN(P(=O)(c2ccccc2)N2CCN(C)CC2)CC1
inactive: dose: 100.0 mg/kg/injection, schedule: Q04DX002 (ip), vehicle: saline with Tween-80 98 % of control | dose: 200.0 mg/kg/injection, schedule: Q04DX002 (ip), vehicle: saline with Tween-80 98 % of control | dose: 400.0 mg/kg/injection, schedule: Q04DX002 (ip), vehicle: saline with Tween-80 98 % of control

CCCCCCCCCCCCCCCCC(O)CO (centres undefined)
inactive: [8] 96 % of control | [9] 102 % of control | dose: 400.0 mg/kg/injection, schedule: Q01DX009 (ip), vehicle: Klucel (hydroxypropylcellulose) (HPC) 96 % of control

COc1ccc(N=NN(C)C(=O)c2ccccc2)cc1
inactive: [10] 108 % of control | dose: 75.0 mg/kg/injection, schedule: Q01DX001 (ip), vehicle: Klucel (hydroxypropylcellulose) (HPC) 112 % of control | [8] 120 % of control | dose: 150.0 mg/kg/injection, schedule: Q01DX001 (ip), vehicle: Klucel (hydroxypropylcellulose) (HPC) 111 % of control | dose: 300.0 mg/kg/injection, schedule: Q01DX001 (ip), vehicle: Klucel (hydroxypropylcellulose) (HPC) 107 % of control

O=C1OC(c2ccccc2)=N/C1=C/c1ccc(OCc2ccccc2)c(OCc2ccccc2)c1
inactive: dose: 100.0 mg/kg/injection, schedule: Q01DX001 (ip), vehicle: saline with Tween-80 91 % of control | dose: 200.0 mg/kg/injection, schedule: Q01DX001 (ip), vehicle: saline with Tween-80 95 % of control | dose: 400.0 mg/kg/injection, schedule: Q01DX001 (ip), vehicle: saline with Tween-80 86 % of control

Cc1cc(N(CCOS(C)(=O)=O)CCOS(C)(=O)=O)ccc1C=Nc1ccc(-c2nc(Cc3ccccc3)sc2C)cc1
inactive: dose: 12.5 mg/kg/injection, schedule: Q01DX009 (ip), vehicle: Klucel (hydroxypropylcellulose) (HPC) 115 % of control | dose: 66.0 mg/kg/injection, schedule: Q04DX003 (ip), vehicle: Klucel (hydroxypropylcellulose) (HPC) 115 % of control

CCN(CC)CCCC(C)Nc1cccc2c1C(=O)c1cccc(NC(C)CCCN(CC)CC)c1C2=O (centres undefined)
inactive: dose: 12.5 mg/kg/injection, schedule: Q01DX009 (ip), vehicle: saline 107 % of control | dose: 25.0 mg/kg/injection, schedule: Q01DX009 (ip), vehicle: saline 96 % of control and 118 % of control | dose: 25.0 mg/kg/injection, schedule: Q04DX002 (ip), vehicle: saline 98 % of control and 95 % of control | dose: 50.0 mg/kg/injection, schedule: Q04DX002 (ip), vehicle: saline 92 % of control and 98 % of control | [11] 102 % of control and 92 % of control

S=C(Nc1ccccc1)Sc1ccc(Cl)cc1
inactive: dose: 25.0 mg/kg/injection, schedule: Q04DX003 (ip), vehicle: saline with Tween-80 96 % of control | dose: 50.0 mg/kg/injection, schedule: Q04DX003 (ip), vehicle: saline with Tween-80 92 % of control | [12] 101 % of control

COc1ccc(CO/N=C2/CC(NOCc3ccc(OC)cc3)NC(=O)N2)cc1 (centres undefined)
inactive: dose: 100.0 mg/kg/injection, schedule: Q04DX003 (ip), vehicle: saline 90 % of control | dose: 200.0 mg/kg/injection, schedule: Q04DX003 (ip), vehicle: saline 90 % of control | dose: 400.0 mg/kg/injection, schedule: Q04DX003 (ip), vehicle: saline 86 % of control

CCCCCCCCCC(=O)N(CCCC)CCCC
inactive: [10] 102 % of control | [8] 105 % of control | [11] 95 % of control | [9] 109 % of control | dose: 200.0 mg/kg/injection, schedule: Q04DX002 (ip), vehicle: saline 101 % of control | dose: 400.0 mg/kg/injection, schedule: Q04DX002 (ip), vehicle: saline 88 % of control

Cc1ccc(NC(=O)c2ccco2)cc1Cl
inactive: [4] 93 % of control | [1] 102 % of control | dose: 200.0 mg/kg/injection, schedule: Q01DX001 (ip), vehicle: Klucel (hydroxypropylcellulose) (HPC) 89 % of control | [2] 118 % of control | dose: 400.0 mg/kg/injection, schedule: Q01DX001 (ip), vehicle: Klucel (hydroxypropylcellulose) (HPC) 105 % of control | [3] 123 % of control

C=C1C(=O)OC2C1CCC(=C)C1CC(O)C(=C)C12 (centres undefined)
inactive: dose: 67.0 mg/kg/injection, schedule: Q01DX009 (ip), vehicle: saline with Tween-80 103 % of control | [13] 105 % of control

Clc1ccc2nc(/C=C/c3ccccc3)ccc2c1
inactive: dose: 100.0 mg/kg/injection, schedule: Q01DX001 (ip), vehicle: other 95 % of control | dose: 200.0 mg/kg/injection, schedule: Q01DX001 (ip), vehicle: other 104 % of control | dose: 400.0 mg/kg/injection, schedule: Q01DX001 (ip), vehicle: other 98 % of control

[O-][N+](=Nc1ccc(Br)cc1)c1ccc(Br)cc1
inactive: [1] 95 % of control | [2] 100 % of control | [3] 89 % of control

CNC1C(OC2C(OC3C(O)C(O)C(N=C(N)N)C(O)C3N=C(N)N)OC(C)C2(O)C=O)OC(CO)C(O)C1O (centres undefined)
inactive: [5] 108 % of control | [6] 106 % of control | [7] 114 % of control

O=C1C=CC(=O)c2c1ccc1ccccc21
inactive: dose: 12.5 mg/kg/injection, schedule: Q04DX003 (ip), vehicle: saline 102 % of control | dose: 25.0 mg/kg/injection, schedule: Q04DX003 (ip), vehicle: saline 96 % of control | dose: 50.0 mg/kg/injection, schedule: Q04DX003 (ip), vehicle: saline 101 % of control

O=[N+]([O-])c1ccc(N=Nc2ccc(O)cc2)cc1
inactive: dose: 55.0 mg/kg/injection, schedule: Q01DX Z (ip), vehicle: methylcellulose (MC) 103 % of control | dose: 83.0 mg/kg/injection, schedule: Q01DX Z (ip), vehicle: methylcellulose (MC) 117 % of control | [12] 98 % of control | dose: 125.0 mg/kg/injection, schedule: Q01DX Z (ip), vehicle: methylcellulose (MC) 103 % of control | [14] 91 % of control | [15] 98 % of control

CC(C)=CC#N
inactive: [12] 90 % of control | [14] 103 % of control | [15] 101 % of control

COC(=O)Nc1nc2ccccc2[nH]1
inactive: dose: 50.0 mg/kg/injection, schedule: Q01DX009 (ip), vehicle: saline with Tween-80 97 % of control | dose: 100.0 mg/kg/injection, schedule: Q01DX001 (ip), vehicle: carboxymethylcellulose (CMC) 94 % of control | [13] 101 % of control | [12] 94 % of control | dose: 200.0 mg/kg/injection, schedule: Q01DX001 (ip), vehicle: carboxymethylcellulose (CMC) 97 % of control | dose: 200.0 mg/kg/injection, schedule: Q01DX009 (ip), vehicle: saline with Tween-80 97 % of control | [14] 103 % of control | dose: 400.0 mg/kg/injection, schedule: Q01DX001 (ip), vehicle: carboxymethylcellulose (CMC) 100 % of control | dose: 400.0 mg/kg/injection, schedule: Q01DX009 (ip), vehicle: saline with Tween-80 116 % of control | [15] 105 % of control

c1ccc(-c2nc3ccccc3s2)cc1
inactive: dose: 100.0 mg/kg/injection, schedule: Q04DX002 (ip), vehicle: gum acacia 101 % of control | dose: 200.0 mg/kg/injection, schedule: Q04DX002 (ip), vehicle: gum acacia 111 % of control | dose: 400.0 mg/kg/injection, schedule: Q04DX002 (ip), vehicle: gum acacia 86 % of control
